“And” between values parts separate entries of the source, which are not always exact repeats. Equal values may be shown once. Read-outs that look alike come from different tables or passages of the source.
Columns and labels:
CLC-2 = CLC-2 (Homo sapiens (Human), UniProt P51788); assay: IonWorks Barracuda automated patch-clamp electrophysiology, human CLC-2 cell line; type: cell-based; conditions: for times greater potency towards CLC-2 compared to CLC-1: CLC-2 versus CLC-1
Text: FIG. 8, panels A and B depict graphically the Selectivity between CLC-1 and CLC-2. […]

CLC-1 = CLC-1 (Homo sapiens (Human), UniProt P35523); assay: IonWorks Barracuda automated patch-clamp electrophysiology, CLC-1; type: cell-based; conditions: for IC50: Table 2; for percent inhibition of CLC-1 at highest concentration tested (in parenthesis): at the concentration listed in the same cell
Protocol: If the IC50 was greater than the highest concentration tested, this concentration is listed along with the percent inhibition at this concentration (in parenthesis).
FIG. 8, panels A and B depict graphically the Selectivity between CLC-1 and CLC-2. […] Data points represent the mean current block at 16 different FA44 concentrations (n=4-8), using the IonWorks™ Barracuda. […] Panel B depicts a summary graph showing the mean inhibition of CLC-1 (left bar) or CLC-2 (right bar) current at 30 μM, illustrating the improvement in both selectivity and potency from the hit compound MCFA to the exemplary compound FA44.

5-HT1D = 5-HT1D (Homo sapiens (Human), UniProt P28221); assay: PDSP primary binding assay; conditions: primary binding assay at 10 μM
Protocol: (§1) Two exemplary compounds, FA44 and FA26, were screened against a panel of CNS receptors, transporters, and ion channels to examine specificity for CLC-2 in the brain. A comprehensive primary binding assay screen was performed through the NIH Psychoactive Drug Screening Program (PDSP) at UNC-Chapel Hill. Secondary or functional assays were performed for compounds showing >50% activity in the primary assay.

5-HT2B = 5-HT2B (Homo sapiens (Human), UniProt P41595); assay: PDSP primary binding assay; conditions: primary binding assay at 10 μM
Protocol: as §1

5-HT2C = 5-HT2C (Homo sapiens (Human), UniProt P28335); assay: PDSP primary binding assay; conditions: primary binding assay at 10 μM
Protocol: as §1

5-HT5A = 5-HT5A (Homo sapiens (Human), UniProt P47898); assay: PDSP primary binding assay; conditions: primary binding assay at 10 μM
Protocol: as §1

5-HT6 = 5-HT6 (Homo sapiens (Human), UniProt P50406); assay: PDSP primary binding assay; conditions: primary binding assay at 10 μM
Protocol: as §1

Alpha2C = Alpha2C (Homo sapiens (Human), UniProt P18825); assay: PDSP primary binding assay; conditions: primary binding assay at 10 μM
Protocol: as §1

Beta1 = Beta1 (Homo sapiens (Human), UniProt P08588); assay: PDSP primary binding assay; conditions: primary binding assay at 10 μM
Protocol: as §1

Calcium channel = assay: PDSP primary binding assay; conditions: primary binding assay at 10 μM
Protocol: as §1

D1 = D1 (Homo sapiens (Human), UniProt P21728); assay: PDSP primary binding assay; conditions: primary binding assay at 10 μM
Protocol: as §1

D2 = D2 (Homo sapiens (Human), UniProt P14416); assay: PDSP primary binding assay; conditions: primary binding assay at 10 μM
Protocol: as §1

D3 = D3 (Homo sapiens (Human), UniProt P35462); assay: PDSP primary binding assay; conditions: primary binding assay at 10 μM
Protocol: as §1

D5 = D5 (Homo sapiens (Human), UniProt P21918); assay: PDSP primary binding assay; conditions: primary binding assay at 10 μM
Protocol: as §1

DAT = DAT (Homo sapiens (Human), UniProt Q01959); assay: PDSP primary binding assay; conditions: primary binding assay at 10 μM
Protocol: as §1

DOR = DOR (Homo sapiens (Human), UniProt P41143); assay: PDSP primary binding assay; conditions: primary binding assay at 10 μM
Protocol: as §1

GABAA = assay: PDSP primary binding assay; conditions: primary binding assay at 10 μM
Protocol: as §1

H1 = H1 (Homo sapiens (Human), UniProt P35367); assay: PDSP primary binding assay; conditions: primary binding assay at 10 μM
Protocol: as §1

H2 = H2 (Homo sapiens (Human), UniProt P25021); assay: PDSP primary binding assay; conditions: primary binding assay at 10 μM
Protocol: as §1

KA = assay: PDSP primary binding assay; conditions: primary binding assay at 10 μM
Protocol: as §1

M2 = M2 (Homo sapiens (Human), UniProt P08172); assay: PDSP primary binding assay; conditions: primary binding assay at 10 μM
Protocol: as §1

MOR = MOR (Homo sapiens (Human), UniProt P35372); assay: PDSP primary binding assay; conditions: primary binding assay at 10 μM
Protocol: as §1

NET = NET (Homo sapiens (Human), UniProt P23975); assay: PDSP primary binding assay; conditions: primary binding assay at 10 μM
Protocol: as §1

NOP = NOP (Homo sapiens (Human), UniProt P41146); assay: PDSP primary binding assay; conditions: primary binding assay at 10 μM
Protocol: as §1

PBR = PBR (Homo sapiens (Human), UniProt P30536); assay: PDSP primary binding assay; conditions: primary binding assay at 10 μM
Protocol: as §1

SERT = SERT (Homo sapiens (Human), UniProt P31645); assay: PDSP primary binding assay; conditions: primary binding assay at 10 μM
Protocol: as §1

Sigma 2 = Sigma 2 (Homo sapiens (Human), UniProt Q5BJF2); assay: PDSP primary binding assay; conditions: primary binding assay at 10 μM
Protocol: as §1

5-HT1A = 5-HT1A (Homo sapiens (Human), UniProt P08908); assay: PDSP primary binding assay and secondary assay; conditions: for % (10 μM): primary binding assay at 10 μM; for Ki: secondary or functional assay
Protocol: as §1

Alpha2A = Alpha2A (Homo sapiens (Human), UniProt P08913); assay: PDSP primary binding assay and secondary assay; conditions: for % (10 μM): primary binding assay at 10 μM
Protocol: as §1

HERG = HERG (Homo sapiens (Human), UniProt Q12809); assay: PDSP primary binding assay and secondary assay; conditions: for % (10 μM): primary binding assay at 10 μM
Protocol: as §1

M1 = M1 (Homo sapiens (Human), UniProt P11229); assay: PDSP primary binding assay and secondary assay; conditions: for % (10 μM): primary binding assay at 10 μM
Protocol: as §1

M3 = M3 (Homo sapiens (Human), UniProt P20309); assay: PDSP primary binding assay and secondary assay; conditions: for % (10 μM): primary binding assay at 10 μM; for Ki: secondary or functional assay
Protocol: as §1

M4 = M4 (Homo sapiens (Human), UniProt P08173); assay: PDSP primary binding assay and secondary assay; conditions: for % (10 μM): primary binding assay at 10 μM
Protocol: as §1

M5 = M5 (Homo sapiens (Human), UniProt P08912); assay: PDSP primary binding assay and secondary assay; conditions: for % (10 μM): primary binding assay at 10 μM; for Ki: secondary or functional assay
Protocol: as §1

mGluR5 = mGluR5 (Homo sapiens (Human), UniProt P41594); assay: PDSP primary binding assay and secondary assay; conditions: for % (10 μM): primary binding assay at 10 μM; for Ki: secondary or functional assay
Protocol: as §1

[1] = n = 4 cells, four concentrations of each compound, IonWorks Barracuda, read-out: IC50 (μM) against CLC-2

Sequence of M4 (P08173 whole entry): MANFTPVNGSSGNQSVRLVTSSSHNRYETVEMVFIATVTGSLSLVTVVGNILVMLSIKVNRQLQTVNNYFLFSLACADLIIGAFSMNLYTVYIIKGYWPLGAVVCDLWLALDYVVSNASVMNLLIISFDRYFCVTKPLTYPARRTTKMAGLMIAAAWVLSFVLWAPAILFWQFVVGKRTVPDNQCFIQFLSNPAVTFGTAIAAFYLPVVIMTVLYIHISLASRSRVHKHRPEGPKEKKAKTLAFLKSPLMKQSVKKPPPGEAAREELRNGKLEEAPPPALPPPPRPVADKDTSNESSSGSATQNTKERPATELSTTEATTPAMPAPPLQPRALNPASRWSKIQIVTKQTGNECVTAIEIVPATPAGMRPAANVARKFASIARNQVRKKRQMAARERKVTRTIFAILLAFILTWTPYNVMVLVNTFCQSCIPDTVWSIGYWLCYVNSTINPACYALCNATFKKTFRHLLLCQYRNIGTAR
Sequence of M1 (P11229 whole entry): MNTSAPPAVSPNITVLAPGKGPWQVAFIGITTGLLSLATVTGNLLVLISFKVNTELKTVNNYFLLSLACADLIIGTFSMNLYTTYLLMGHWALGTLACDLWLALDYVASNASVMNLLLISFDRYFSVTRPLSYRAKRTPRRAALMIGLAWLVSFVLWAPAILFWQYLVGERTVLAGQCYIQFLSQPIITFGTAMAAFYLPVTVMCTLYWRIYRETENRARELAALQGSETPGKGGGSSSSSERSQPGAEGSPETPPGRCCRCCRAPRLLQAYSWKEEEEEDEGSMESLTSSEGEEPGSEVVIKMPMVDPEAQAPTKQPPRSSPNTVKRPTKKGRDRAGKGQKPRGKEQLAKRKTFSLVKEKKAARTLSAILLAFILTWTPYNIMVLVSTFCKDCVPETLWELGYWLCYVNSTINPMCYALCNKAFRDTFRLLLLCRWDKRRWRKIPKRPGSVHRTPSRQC
Sequence of M3 (P20309 whole entry): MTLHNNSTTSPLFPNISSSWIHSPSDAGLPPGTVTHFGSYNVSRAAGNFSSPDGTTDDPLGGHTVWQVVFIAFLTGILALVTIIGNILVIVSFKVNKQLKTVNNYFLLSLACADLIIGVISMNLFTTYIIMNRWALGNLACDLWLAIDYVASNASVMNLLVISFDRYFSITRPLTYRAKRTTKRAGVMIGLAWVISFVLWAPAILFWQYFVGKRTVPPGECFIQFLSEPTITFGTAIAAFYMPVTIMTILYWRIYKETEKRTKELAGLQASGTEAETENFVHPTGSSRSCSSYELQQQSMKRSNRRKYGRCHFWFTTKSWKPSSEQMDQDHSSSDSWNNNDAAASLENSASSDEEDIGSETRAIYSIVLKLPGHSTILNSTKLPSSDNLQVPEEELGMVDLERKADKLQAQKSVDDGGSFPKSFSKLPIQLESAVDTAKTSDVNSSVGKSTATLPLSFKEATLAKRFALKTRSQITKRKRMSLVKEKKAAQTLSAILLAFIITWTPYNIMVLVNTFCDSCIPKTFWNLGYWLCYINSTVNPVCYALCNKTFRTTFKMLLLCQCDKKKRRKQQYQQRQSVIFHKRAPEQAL
Sequence of mGluR5 (P41594 21-1212): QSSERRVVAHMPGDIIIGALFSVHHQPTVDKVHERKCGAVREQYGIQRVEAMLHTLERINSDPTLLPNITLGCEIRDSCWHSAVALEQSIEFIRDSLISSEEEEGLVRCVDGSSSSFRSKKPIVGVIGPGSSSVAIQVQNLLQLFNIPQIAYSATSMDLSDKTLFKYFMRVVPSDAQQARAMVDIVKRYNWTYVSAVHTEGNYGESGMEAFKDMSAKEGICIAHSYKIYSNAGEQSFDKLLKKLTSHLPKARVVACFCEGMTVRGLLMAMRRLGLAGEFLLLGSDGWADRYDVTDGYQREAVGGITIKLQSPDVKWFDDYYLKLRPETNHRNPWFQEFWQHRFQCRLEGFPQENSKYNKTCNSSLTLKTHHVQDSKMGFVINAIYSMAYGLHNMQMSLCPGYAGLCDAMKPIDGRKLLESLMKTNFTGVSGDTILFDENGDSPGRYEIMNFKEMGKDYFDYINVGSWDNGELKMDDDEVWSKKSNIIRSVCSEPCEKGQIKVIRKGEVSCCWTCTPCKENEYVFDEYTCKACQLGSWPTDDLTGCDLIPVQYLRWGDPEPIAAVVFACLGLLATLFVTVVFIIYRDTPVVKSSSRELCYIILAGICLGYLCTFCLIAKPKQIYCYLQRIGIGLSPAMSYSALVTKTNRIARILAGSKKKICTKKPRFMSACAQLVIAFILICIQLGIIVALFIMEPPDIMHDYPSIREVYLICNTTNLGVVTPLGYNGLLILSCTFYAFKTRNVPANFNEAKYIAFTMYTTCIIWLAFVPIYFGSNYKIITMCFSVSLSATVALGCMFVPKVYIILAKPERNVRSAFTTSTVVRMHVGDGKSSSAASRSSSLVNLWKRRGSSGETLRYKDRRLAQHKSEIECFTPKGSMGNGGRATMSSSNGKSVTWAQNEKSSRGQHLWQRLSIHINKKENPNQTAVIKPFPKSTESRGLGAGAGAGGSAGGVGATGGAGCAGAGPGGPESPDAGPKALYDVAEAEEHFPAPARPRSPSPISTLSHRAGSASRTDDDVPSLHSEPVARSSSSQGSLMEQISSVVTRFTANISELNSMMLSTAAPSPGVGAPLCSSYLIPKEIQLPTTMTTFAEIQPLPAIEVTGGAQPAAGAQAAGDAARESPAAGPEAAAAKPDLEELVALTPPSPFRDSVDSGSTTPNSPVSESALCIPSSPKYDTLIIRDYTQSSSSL
Sequence of M5 (P08912 whole entry): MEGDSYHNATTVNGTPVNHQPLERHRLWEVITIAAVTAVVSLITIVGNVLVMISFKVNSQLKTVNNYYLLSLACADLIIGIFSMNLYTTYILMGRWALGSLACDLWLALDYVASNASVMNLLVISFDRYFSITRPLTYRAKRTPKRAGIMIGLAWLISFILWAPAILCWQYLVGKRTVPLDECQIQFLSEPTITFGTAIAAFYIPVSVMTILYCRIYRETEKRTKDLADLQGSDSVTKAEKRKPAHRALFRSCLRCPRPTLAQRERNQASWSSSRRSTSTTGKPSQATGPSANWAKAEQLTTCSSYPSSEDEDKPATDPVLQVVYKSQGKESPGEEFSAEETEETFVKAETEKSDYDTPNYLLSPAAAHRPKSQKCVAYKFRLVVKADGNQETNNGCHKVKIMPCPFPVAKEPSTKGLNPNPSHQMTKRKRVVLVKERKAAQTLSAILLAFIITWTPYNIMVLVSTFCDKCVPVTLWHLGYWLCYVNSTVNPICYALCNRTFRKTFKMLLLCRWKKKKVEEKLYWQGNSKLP
Sequence of CLC-1 (P35523 whole entry): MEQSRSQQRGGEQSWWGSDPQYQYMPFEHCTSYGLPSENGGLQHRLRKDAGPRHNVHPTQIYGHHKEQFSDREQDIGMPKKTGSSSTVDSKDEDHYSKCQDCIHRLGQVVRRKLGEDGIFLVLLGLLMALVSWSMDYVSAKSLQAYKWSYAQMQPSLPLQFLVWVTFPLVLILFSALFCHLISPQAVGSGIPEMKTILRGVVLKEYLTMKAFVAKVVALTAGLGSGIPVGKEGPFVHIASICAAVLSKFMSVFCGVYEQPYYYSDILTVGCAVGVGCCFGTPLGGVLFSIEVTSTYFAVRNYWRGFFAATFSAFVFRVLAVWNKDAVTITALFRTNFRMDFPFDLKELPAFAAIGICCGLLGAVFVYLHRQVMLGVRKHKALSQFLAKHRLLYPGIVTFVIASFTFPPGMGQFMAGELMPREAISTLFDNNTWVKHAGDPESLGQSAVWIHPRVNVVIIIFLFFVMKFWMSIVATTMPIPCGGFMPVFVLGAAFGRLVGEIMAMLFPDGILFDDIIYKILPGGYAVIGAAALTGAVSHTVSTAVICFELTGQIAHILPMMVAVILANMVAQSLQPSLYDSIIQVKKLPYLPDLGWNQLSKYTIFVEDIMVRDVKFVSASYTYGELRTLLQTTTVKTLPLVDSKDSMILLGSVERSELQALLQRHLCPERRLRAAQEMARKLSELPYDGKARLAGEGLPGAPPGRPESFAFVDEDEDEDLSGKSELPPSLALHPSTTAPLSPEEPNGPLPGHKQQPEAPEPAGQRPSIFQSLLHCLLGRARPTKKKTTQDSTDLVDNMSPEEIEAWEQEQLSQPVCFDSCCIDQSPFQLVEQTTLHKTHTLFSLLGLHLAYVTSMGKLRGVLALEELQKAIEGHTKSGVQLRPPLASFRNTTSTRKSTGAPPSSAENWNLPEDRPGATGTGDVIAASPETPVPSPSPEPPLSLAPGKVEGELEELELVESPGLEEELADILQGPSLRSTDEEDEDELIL
Sequence of Alpha2A (P08913 whole entry): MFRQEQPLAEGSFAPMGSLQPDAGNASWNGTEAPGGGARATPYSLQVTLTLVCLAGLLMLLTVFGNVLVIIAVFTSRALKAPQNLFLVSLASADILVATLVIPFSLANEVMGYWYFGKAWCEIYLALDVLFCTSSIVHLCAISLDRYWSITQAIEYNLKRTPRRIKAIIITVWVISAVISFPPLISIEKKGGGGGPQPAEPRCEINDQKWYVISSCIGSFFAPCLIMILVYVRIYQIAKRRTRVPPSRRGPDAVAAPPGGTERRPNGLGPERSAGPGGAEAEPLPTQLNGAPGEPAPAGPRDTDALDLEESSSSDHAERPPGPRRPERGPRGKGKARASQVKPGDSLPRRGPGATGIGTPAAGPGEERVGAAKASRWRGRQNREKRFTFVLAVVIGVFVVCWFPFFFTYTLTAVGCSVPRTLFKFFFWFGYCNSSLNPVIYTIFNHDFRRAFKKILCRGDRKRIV
Sequence of Sigma 2 (Q5BJF2 whole entry): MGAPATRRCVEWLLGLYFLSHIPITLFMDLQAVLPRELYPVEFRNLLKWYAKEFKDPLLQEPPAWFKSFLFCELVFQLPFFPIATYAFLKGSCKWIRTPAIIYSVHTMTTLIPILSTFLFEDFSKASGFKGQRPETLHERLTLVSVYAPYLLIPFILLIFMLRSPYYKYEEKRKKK

O=C(O)c1ccccc1Nc1c(Cl)ccc(OCc2ccccc2)c1Cl [AK3-99B]
IC50 (CLC-2; Table 2, read-out: IC50 (CLC-2)): 1.7 ± 0.2 µM
IC50 (CLC-2; [1]): 0.62 µM
IC50 (CLC-2; text and FIG. 3, Table 1 series, read-out: IC50 against CLC-2): ~0.6 µM and 0.6 µM
IC50 (CLC-1): > 30000 nM
percent inhibition of CLC-1 at highest concentration tested (in parenthesis) (CLC-1): 25%
% (10 μM) (5-HT1D): 6.77%
% (10 μM) (5-HT2B): 14.38%
% (10 μM) (5-HT2C): −11.17%
% (10 μM) (5-HT5A): −5.77%
% (10 μM) (5-HT6): −10.67%
% (10 μM) (Alpha2C): 17.28%
% (10 μM) (Beta1): −13.11%
% (10 μM) (Calcium channel): 12.22%
% (10 μM) (D1): 27.05%
% (10 μM) (D2): −6.96%
% (10 μM) (D3): 18.42%
% (10 μM) (D5): 27.29%
% (10 μM) (DAT): −17.73%
% (10 μM) (DOR): 16.22%
% (10 μM) (GABAA): −17.65%
% (10 μM) (H1): −4.62%
% (10 μM) (H2): 25.62%
% (10 μM) (KA): 13.56%
% (10 μM) (M2): 14.57%
% (10 μM) (MOR): 9.03%
% (10 μM) (NET): 33.59%
% (10 μM) (NOP): 24.65%
% (10 μM) (PBR): 2.28%
% (10 μM) (SERT): 4.65%
% (10 μM) (Sigma 2): −9.10%
% (10 μM) (5-HT1A): 50.00%
Ki (5-HT1A): > 10000 nM
% (10 μM) (Alpha2A): 65.08%
Ki (Alpha2A; secondary or functional assay): 3000 nM
% (10 μM) (HERG): −15.95%
% (10 μM) (M1): 58.54%
Ki (M1; secondary or functional assay): > 10000 nM
% (10 μM) (M3): 65.66%
Ki (M3): > 10000 nM
% (10 μM) (M4): −3.01%
% (10 μM) (M5): 56.99%
Ki (M5): > 10000 nM
% (10 μM) (mGluR5): 47.44%
Ki (mGluR5): > 10000 nM

O=C(O)c1cccnc1Nc1c(Cl)ccc(OCc2ccccc2)c1Cl [AK3-238]
% inhibition at the concentration listed (in parenthesis) (CLC-2; CLC-2, at the concentration listed in the IC50 cell, negative = increase in peak current): (90%)
times greater potency towards CLC-2 compared to CLC-1 (CLC-2): approximately 10,000 times
times greater potency towards CLC-2 compared to CLC-1 (CLC-2; listed as FA44): 10,000 times
selectivity CLC-2 over CLC-1 (CLC-2; FIG. 8 panel A): selective for CLC-2 over CLC-1
IC50 (CLC-2; Table 2 / FIG. 8, 16 concentrations, n=4-8, −120 mV, read-out: IC50 (CLC-2)): 0.017 ± 0.002 µM
IC50 (CLC-2; [1]): < 0.12 µM
IC50 (CLC-1): > 100000 nM
percent inhibition of CLC-1 at highest concentration tested (in parenthesis) (CLC-1): 22%
% (10 μM) (5-HT1D): 44.06%
% (10 μM) (5-HT2B): 45.16%
% (10 μM) (5-HT2C): −13.39%
% (10 μM) (5-HT5A): 28.19%
% (10 μM) (5-HT6): 18.68%
% (10 μM) (Alpha2C): 3.41%
% (10 μM) (Beta1): 22.04%
% (10 μM) (Calcium channel): 23.69%
% (10 μM) (D1): −9.96%
% (10 μM) (D2): 7.69%
% (10 μM) (D3): −4.66%
% (10 μM) (D5): 31.58%
% (10 μM) (DAT): 9.23%
% (10 μM) (DOR): 16.59%
% (10 μM) (GABAA): −4.29%
% (10 μM) (H1): 15.48%
% (10 μM) (H2): 5.35%
% (10 μM) (KA): 36.60%
% (10 μM) (M2): −8.25%
% (10 μM) (MOR): −0.18%
% (10 μM) (NET): 17.36%
% (10 μM) (NOP): 21.14%
% (10 μM) (PBR): 8.22%
% (10 μM) (SERT): 30.25%
% (10 μM) (Sigma 2): −8.14%
% (10 μM) (5-HT1A): 53.99%
Ki (5-HT1A): > 10000 nM
% (10 μM) (Alpha2A): −2.55%
% (10 μM) (HERG): −43.87%
Ki (HERG; secondary or functional assay): > 10000 nM
% (10 μM) (M1): 11.29%
% (10 μM) (M3): 54.64%
Ki (M3): > 3000 nM
% (10 μM) (M4): 56.16%
Ki (M4; secondary or functional assay): > 5000 nM
% (10 μM) (M5): 13.55%
Ki (M5): > 10000 nM
% (10 μM) (mGluR5): 57.39%
Ki (mGluR5): > 10000 nM

Source: patent US11173137B2, “Compositions and methods to modulate chloride ion channel activity” (The Board of Trustees of the Leland Stanford Junior …, priority 2018, dated 2021)
